The structures appear in SMILES notation. In brackets after ≈: the same amount, converted by molar mass.

The record followed here is patent US10160724B2, “Tetrahydropyridine derivatives and their use as antibacterial agents” (Dong-A St Co., Ltd., priority 2016, dated 2018).

Experiment in all cases: In vitro antibiotic activity, agar dilution method (Mueller-Hinton agar, NCCLS)
Assay type in all cases: cell-based

One test deals with K. pneumoniae ATCC 29665. Particulars: Klebsiella pneumoniae, ATCC29665; agar dilution, Mueller-Hinton agar; read-out: MIC for K. pneumoniae ATCC 29665. How it is done: (§1) To measure the antibiotic activity of the compounds prepared by Examples, antibiotic activity test in vitro was performed by agar dilution method using Mueller-Hinton agar according to the NCCLS (National Committee for Clinical Laboratory Standards. 2000. Methods for dilution antimicrobial susceptibility tests for bacteria that grow aerobiocally. Approved standard, NCCLS document M7-M5, 5th ed, vol 20, no 2. National Committee for Clinical Laboratory Standards, Wayne, Pa.). The test strain was Escherichia coli (ATCC 25922), Klebsiella pneumonia (ATCC 29665) and Pseudomonas aeriginosa (PAO1).
(Agar dilution tests growth on a series of plates holding different concentrations.)

In another test the test system is P. aeruginosa PAO1. To be noted: Pseudomonas aeruginosa, PAO1; agar dilution, Mueller-Hinton agar; read-out: MIC for P. aeruginosa PAO1. How it is done:
as §1

A further test concerns E. coli ATCC 25922. Particulars: Escherichia coli, ATCC25922; agar dilution, Mueller-Hinton agar; read-out: MIC for E. coli ATCC 25922. How it is done: as §1

In general, MIC refers to the smallest concentration in the dilution series that meets the test's criterion for growth inhibition. On to `CC(CCN1CC=C(c2ccc(C#Cc3cccs3)cc2)CC1)(C(=O)NO)S(C)(=O)=O` (stereo not drawn) [Example 34, N-hydroxy-2-methyl-2-(methylsulfonyl)-4-(4-(4-(thiophen-2-ylethynyl)phenyl)-3,6-dihydropyridin-1(2H)-yl)butanamide], for which the results for the MIC in the test on K. pneumoniae ATCC 29665, in the test with P. aeruginosa PAO1 and in the test with E. coli ATCC 25922 were 1 to 8 µg/mL (≈ 2.18 to 17.4 µM), 1 to 8 µg/mL (≈ 2.18 to 17.4 µM) and < 1 µg/mL, respectively.
As to `CC(CCN1CC=C(c2ccc(C#Cc3ccc([N+](=O)[O-])cc3)cc2)CC1)(C(=O)NO)S(C)(=O)=O` (stereo not drawn) [Example 35, N-hydroxy-2-methyl-2-(methylsulfonyl)-4-(4-(4-((4-nitrophenyl)ethynyl)phenyl)-3,6-dihydropyridin-1(2H)-yl)butanamide], the MIC with K. pneumoniae ATCC 29665, with P. aeruginosa PAO1 and in the test with E. coli ATCC 25922 was > 16 µg/mL throughout.
`CC(CCN1CC=C(c2ccc(C#Cc3cccnc3)cc2)CC1)(C(=O)NO)S(C)(=O)=O` (stereo not drawn) [Example 36, N-hydroxy-2-methyl-2-(methylsulfonyl)-4-(4-(4-(pyridin-3-ylethynyl)phenyl)-3,6-dihydropyridin-1(2H)-yl)butanamide]: the MIC with K. pneumoniae ATCC 29665 is 1 to 8 µg/mL (≈ 2.2 to 17.6 µM); in the test on P. aeruginosa PAO1 it was 1 to 8 µg/mL (≈ 2.2 to 17.6 µM); in the test on E. coli ATCC 25922 it was < 1 µg/mL.
In the case of `CC(CCN1CC=C(c2ccc(C#Cc3ccc(O)cc3)cc2)CC1)(C(=O)NO)S(C)(=O)=O` (stereo not drawn) [Example 37, N-hydroxy-4-(4-(4-((4-hydroxyphenyl)ethynyl)phenyl)-3,6-dihydropyridin-1(2H)-yl)-2-methyl-2-(methylsulfonyl)butanamide], the MIC with K. pneumoniae ATCC 29665 is > 16 µg/mL; with P. aeruginosa PAO1, > 16 µg/mL; with E. coli ATCC 25922, < 1 µg/mL.
For the molecule `Cn1cnc(C#Cc2ccc(C3=CCN(CCC(C)(C(=O)NO)S(C)(=O)=O)CC3)cc2)c1` (stereo not drawn) [Example 38, N-hydroxy-2-methyl-4-(4-(4-((1-methyl-1H-imidazol-4-yl)ethynyl)phenyl)-3,6-dihydropyridin-1(2H)-yl)-2-(methylsulfonyl)butanamide], the MIC is 1 to 8 µg/mL (≈ 2.19 to 17.5 µM) in the test with K. pneumoniae ATCC 29665, 1 to 8 µg/mL (≈ 2.19 to 17.5 µM) in the test on P. aeruginosa PAO1 and < 1 µg/mL in the test with E. coli ATCC 25922.
Take `CN1CC(C#Cc2ccc(C3=CCN(CCC(C)(C(=O)NO)S(C)(=O)=O)CC3)cc2)C1` (stereo not drawn) [Example 39, N-hydroxy-2-methyl-4-(4-(4-((1-methylazetidin-3-yl)ethynyl)phenyl)-3,6-dihydropyridin-1(2H)-yl)-2-(methylsulfonyl)butanamide]: the MIC with K. pneumoniae ATCC 29665, in the test with P. aeruginosa PAO1 and with E. coli ATCC 25922 was 8 to 16 µg/mL (≈ 18 to 35.9 µM) in each case.
For the molecule `CC(=O)N1CC(C#Cc2ccc(C3=CCN(CCC(C)(C(=O)NO)S(C)(=O)=O)CC3)cc2)C1` (stereo not drawn) [Example 40, 4-(4-(4-((1-acetylazetidin-3-yl)ethynyl)phenyl)-3,6-dihydropyridin-1(2H)-yl)-N-hydroxy-2-methyl-2-(methylsulfonyl)butanamide], the MIC in the test with K. pneumoniae ATCC 29665, in the test on P. aeruginosa PAO1 and in the test with E. coli ATCC 25922 was 1 to 8 µg/mL (≈ 2.11 to 16.9 µM) throughout.
Take `CC(CCN1CC=C(c2ccc(C#CC3CN(S(C)(=O)=O)C3)cc2)CC1)(C(=O)NO)S(C)(=O)=O` (stereo not drawn) [Example 41, N-hydroxy-2-methyl-2-(methylsulfonyl)-4-(4-(4-((1-(methylsulfonyl)azetidin-3-yl)ethynyl)phenyl)-3,6-dihydropyridin-1(2H)-yl)butanamide]: the minimum inhibitory concentration (MIC) is 8 to 16 µg/mL (≈ 15.7 to 31.4 µM) with K. pneumoniae ATCC 29665, 8 to 16 µg/mL (≈ 15.7 to 31.4 µM) with P. aeruginosa PAO1 and 1 to 8 µg/mL (≈ 1.96 to 15.7 µM) in the test on E. coli ATCC 25922.
As to `CC(CCN1CC=C(c2ccc(C#CC#CCCCO)c(F)c2)CC1)(C(=O)NO)S(C)(=O)=O` (stereo not drawn) [Example 42, 4-(4-(3-fluoro-4-(7-hydroxyhepta-1,3-diyn-1-yl)phenyl)-3,6-dihydropyridin-1(2H)-yl)-N-hydroxy-2-methyl-2-(methylsulfonyl)butanamide], the minimal inhibitory concentration (MIC) in the test on K. pneumoniae ATCC 29665 was 1 to 8 µg/mL (≈ 2.1 to 16.8 µM); in the test with P. aeruginosa PAO1 it was 1 to 8 µg/mL (≈ 2.1 to 16.8 µM); with E. coli ATCC 25922 it was < 1 µg/mL.
As to `CC(CCN1CC=C(c2ccc(C#CC#CCCO)c(F)c2)CC1)(C(=O)NO)S(C)(=O)=O` (stereo not drawn) [Example 43, 4-(4-(3-fluoro-4-(6-hydroxyhexa-1,3-diyn-1-yl)phenyl)-3,6-dihydropyridin-1(2H)-yl)-N-hydroxy-2-methyl-2-(methylsulfonyl)butanamide], the MIC in the test on K. pneumoniae ATCC 29665 is 1 to 8 µg/mL (≈ 2.16 to 17.3 µM); in the test with P. aeruginosa PAO1, 1 to 8 µg/mL (≈ 2.16 to 17.3 µM); in the test with E. coli ATCC 25922, < 1 µg/mL.
Take `CC(CCN1CC=C(c2ccc(C#CC#CC3CC3)c(F)c2)CC1)(C(=O)NO)S(C)(=O)=O` (stereo not drawn) [Example 44, 4-(4-(4-(cyclopropylbuta-1,3-diyn-1-yl)-3-fluorophenyl)-3,6-dihydropyridin-1(2H)-yl)-N-hydroxy-2-methyl-2-(methylsulfonyl)butanamide]: the minimal inhibitory concentration (MIC) with K. pneumoniae ATCC 29665 is 1 to 8 µg/mL (≈ 2.18 to 17.4 µM); with P. aeruginosa PAO1, 1 to 8 µg/mL (≈ 2.18 to 17.4 µM); in the test with E. coli ATCC 25922, < 1 µg/mL.
Consider `CN(C)CC#CC#Cc1ccc(C2=CCN(CCC(C)(C(=O)NO)S(C)(=O)=O)CC2)cc1F` (stereo not drawn) [Example 45, 4-(4-(4-(5-(dimethylamino)penta-1,3-diyn-1-yl)-3-fluorophenyl)-3,6-dihydropyridin-1(2H)-yl)-N-hydroxy-2-methyl-2-(methylsulfonyl)butanamide], for which the MIC in the test with K. pneumoniae ATCC 29665 was 1 to 8 µg/mL (≈ 2.1 to 16.8 µM); in the test with P. aeruginosa PAO1, 1 to 8 µg/mL (≈ 2.1 to 16.8 µM); with E. coli ATCC 25922, < 1 µg/mL.
`CC(CCN1CC=C(c2ccc(C#CC#CCCCO)cc2)CC1)(C(=O)NO)S(C)(=O)=O` (stereo not drawn) [Example 46, N-hydroxy-4-(4-(4-(7-hydroxyhepta-1,3-diyn-1-yl)phenyl)-3,6-dihydropyridin-1(2H)-yl)-2-methyl-2-(methylsulfonyl)butanamide]: the MIC is 1 to 8 µg/mL (≈ 2.18 to 17.4 µM) with K. pneumoniae ATCC 29665, 1 to 8 µg/mL (≈ 2.18 to 17.4 µM) in the test on P. aeruginosa PAO1 and < 1 µg/mL in the test with E. coli ATCC 25922.
Take `CC(CCN1CC=C(c2ccc(C#CC#CCCO)cc2)CC1)(C(=O)NO)S(C)(=O)=O` (stereo not drawn) [Example 47, N-hydroxy-4-(4-(4-(6-hydroxyhexa-1,3-diyn-1-yl)phenyl)-3,6-dihydropyridin-1(2H)-yl)-2-methyl-2-(methylsulfonyl)butanamide]: the figures for the MIC in the test on K. pneumoniae ATCC 29665, in the test on P. aeruginosa PAO1 and in the test with E. coli ATCC 25922 were 1 to 8 µg/mL (≈ 2.25 to 18 µM), < 1 µg/mL and < 1 µg/mL, respectively.
Turning to `CC(CCN1CC=C(c2ccc(C#CC#CCO)cc2)CC1)(C(=O)NO)S(C)(=O)=O` (stereo not drawn) [Example 48, N-hydroxy-4-(4-(4-(5-hydroxypenta-1,3-diyn-1-yl)phenyl)-3,6-dihydropyridin-1(2H)-yl)-2-methyl-2-(methylsulfonyl)butanamide], the minimal inhibitory concentration (MIC) was 1 to 8 µg/mL (≈ 2.32 to 18.6 µM) in the test with K. pneumoniae ATCC 29665, < 1 µg/mL with P. aeruginosa PAO1 and < 1 µg/mL with E. coli ATCC 25922.
In the case of `CN(C)CC#CC#Cc1ccc(C2=CCN(CCC(C)(C(=O)NO)S(C)(=O)=O)CC2)cc1` (stereo not drawn) [Example 49, 4-(4-(4-(5-(dimethylamino)penta-1,3-diyn-1-yl)phenyl)-3,6-dihydropyridin-1(2H)-yl)-N-hydroxy-2-methyl-2-(methylsulfonyl)butanamide], the MIC was 1 to 8 µg/mL (≈ 2.19 to 17.5 µM) in the test on K. pneumoniae ATCC 29665, < 1 µg/mL with P. aeruginosa PAO1 and < 1 µg/mL in the test with E. coli ATCC 25922.
Turning to `COCC#CC#Cc1ccc(C2=CCN(CCC(C)(C(=O)NO)S(C)(=O)=O)CC2)cc1` (stereo not drawn) [Example 50, N-hydroxy-4-(4-(4-(5-methoxypenta-1,3-diyn-1-yl)phenyl)-3,6-dihydropyridin-1(2H)-yl)-2-methyl-2-(methylsulfonyl)butanamide], the MIC was 1 to 8 µg/mL (≈ 2.25 to 18 µM) in the test on K. pneumoniae ATCC 29665, < 1 µg/mL in the test on P. aeruginosa PAO1 and < 1 µg/mL in the test on E. coli ATCC 25922.
`CC(CCN1CC=C(c2ccc(C#CC#Cc3ccccc3)cc2)CC1)(C(=O)NO)S(C)(=O)=O` (stereo not drawn) [Example 51, N-hydroxy-2-methyl-2-(methylsulfonyl)-4-(4-(4-(phenylbuta-1,3-diyn-1-yl)phenyl)-3,6-dihydropyridin-1(2H)-yl)butanamide]: the MIC in the test with K. pneumoniae ATCC 29665, with P. aeruginosa PAO1 and with E. coli ATCC 25922 was > 16 µg/mL throughout.
Regarding `CC(CCN1CC=C(C#Cc2ccncc2)CC1)(C(=O)NO)S(C)(=O)=O` (stereo not drawn) [Example 52, N-hydroxy-2-methyl-2-(methylsulfonyl)-4-(4-(pyridin-4-ylethynyl)-3,6-dihydropyridin-1(2H)-yl)butanamide], the results for the minimal inhibitory concentration (MIC) with K. pneumoniae ATCC 29665, in the test with P. aeruginosa PAO1 and with E. coli ATCC 25922 were > 16 µg/mL, > 16 µg/mL and 8 to 16 µg/mL (≈ 21.2 to 42.4 µM), respectively.
Take `CC(CCN1CC=C(C#Cc2ccc(Br)cc2)CC1)(C(=O)NO)S(C)(=O)=O` (stereo not drawn) [Example 53, 4-(4-((4-bromophenyl)ethynyl)-3,6-dihydropyridin-1(2H)-yl)-N-hydroxy-2-methyl-2-(methylsulfonyl)butanamide]: the MIC in the test on K. pneumoniae ATCC 29665 was 1 to 8 µg/mL (≈ 2.2 to 17.6 µM); in the test with P. aeruginosa PAO1 it was > 16 µg/mL; in the test on E. coli ATCC 25922, 1 to 8 µg/mL (≈ 2.2 to 17.6 µM).
`CC(CCN1CC=C(C#CC#CCCCO)CC1)(C(=O)NO)S(C)(=O)=O` (stereo not drawn) [Example 54, N-hydroxy-4-(4-(7-hydroxyhepta-1,3-diyn-1-yl)-3,6-dihydropyridin-1(2H)-yl)-2-methyl-2-(methylsulfonyl)butanamide]: the MIC was > 16 µg/mL in the test on K. pneumoniae ATCC 29665, > 16 µg/mL in the test on P. aeruginosa PAO1 and 8 to 16 µg/mL (≈ 20.9 to 41.8 µM) with E. coli ATCC 25922.
For `CC(CCN1CC=C(c2ccc(-c3ccncc3)cc2)CC1)(C(=O)NO)S(C)(=O)=O` (stereo not drawn) [Example 55, N-hydroxy-2-methyl-2-(methylsulfonyl)-4-(4-(4-(pyridin-4-yl)phenyl)-3,6-dihydropyridin-1(2H)-yl)butanamide], the MIC in the test on K. pneumoniae ATCC 29665, in the test with P. aeruginosa PAO1 and in the test with E. coli ATCC 25922 was 1 to 8 µg/mL (≈ 2.33 to 18.6 µM) in each case.
Consider `CC(CCN1CC=C(c2ccc(-c3ccccc3)cc2)CC1)(C(=O)NO)S(C)(=O)=O` (stereo not drawn) [Example 56, 4-(4-([1,1′-biphenyl]-4-yl)-3,6-dihydropyridin-1(2H)-yl)-N-hydroxy-2-methyl-2-(methylsulfonyl)butanamide], for which the MIC with K. pneumoniae ATCC 29665 is < 1 µg/mL; with P. aeruginosa PAO1 it was 8 to 16 µg/mL (≈ 18.7 to 37.3 µM); in the test on E. coli ATCC 25922, < 1 µg/mL.
